Data set [1] has as its target T1, Proprotein convertase subtilisin/kexin type 9 (Homo sapiens, UniProt Q8NBP7). Kind of data set: Inhibition of human PCSK9 using Alexa Fluor […] as substrate incubated for 2 hrs by FRET assay.
A short description of data set [2]: AUC extrapolated in Wistar Han rat at 5 mg/kg, id measured upto 24 hrs by LC-MS/MS analysis. In kind it is ADME, organism-based. As to conditions: in vivo, other.
The nature of data set [3]: AUC(0 to infinity) in Wistar Han rat at 5 mg/kg, id measured upto 24 hrs by LC-MS/MS analysis. The format is ADME, organism-based. As to conditions: in vivo. Further details: dose 5 mg/kg, time <=24.
Data set [4] has as its target T1, Proprotein convertase subtilisin/kexin type 9. Kind of data set: Inhibition of human PCSK9 using Alexa Fluor […] as substrate incubated for 2 hrs by FRET ultra assay.
Data set [5] deals with T2, Solute carrier organic anion transporter family member 1B1 (Homo sapiens, UniProt Q9Y6L6).
T2 sequence (Q9Y6L6 whole entry): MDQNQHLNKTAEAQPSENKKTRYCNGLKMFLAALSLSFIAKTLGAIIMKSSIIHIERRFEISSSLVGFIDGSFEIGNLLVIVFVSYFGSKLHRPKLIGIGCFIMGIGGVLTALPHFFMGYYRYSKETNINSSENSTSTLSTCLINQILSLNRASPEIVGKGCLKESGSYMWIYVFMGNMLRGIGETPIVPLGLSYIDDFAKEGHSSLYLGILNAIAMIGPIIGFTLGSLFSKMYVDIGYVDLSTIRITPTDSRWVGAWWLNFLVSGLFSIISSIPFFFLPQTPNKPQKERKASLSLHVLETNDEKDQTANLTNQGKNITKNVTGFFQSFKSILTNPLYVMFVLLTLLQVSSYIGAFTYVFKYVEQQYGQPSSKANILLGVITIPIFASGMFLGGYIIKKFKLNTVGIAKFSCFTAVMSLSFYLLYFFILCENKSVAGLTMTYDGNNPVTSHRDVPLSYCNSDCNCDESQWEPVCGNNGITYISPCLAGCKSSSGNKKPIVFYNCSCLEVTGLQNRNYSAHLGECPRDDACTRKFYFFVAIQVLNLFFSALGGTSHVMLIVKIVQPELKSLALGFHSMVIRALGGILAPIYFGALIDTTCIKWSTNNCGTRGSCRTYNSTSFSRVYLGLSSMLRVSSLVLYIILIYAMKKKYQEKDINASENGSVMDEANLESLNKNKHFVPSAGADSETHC
Kind of data set: Inhibition of OATP1B1 (unknown origin) expressed in HEK293 cells assessed as reduction in OATP 1B1-mediated [3H]-pitavastatin uptake preincubated for 30 mins followed by [3H]-pitavastatin addition and measured after 2 mins by liquid scintillation analysis. In kind it is cell-based.

A short description of data set [6]: Cmax in Wistar Han rat at 5 mg/kg, id measured upto 24 hrs by LC-MS/MS analysis. In kind it is ADME, organism-based. Further details: dose 5 mg/kg, time <=24. The conditions noted are these: in vivo.
A short description of data set [7]: Tmax in Wistar Han rat at 5 mg/kg, id measured upto 24 hrs by LC-MS/MS analysis. As to conditions: in vivo. The format is ADME, organism-based.
Data set [8] in a line: Bioavailability in Wistar Han rat at 5 mg/kg, id measured upto 24 hrs by LC-MS/MS analysis. In kind it is ADME, organism-based. The conditions noted are these: in vivo.
In the next data set the test system is Mast cell. Kind of data set: Induction of rat mast cells degranulation activity at 100 uM incubated for 30 mins. In kind it is functional, tissue-based.
For data set [9], the target named is T1, Proprotein convertase subtilisin/kexin type 9. Nature of the data set: Inhibition of human PCSK9 using Alexa Fluor […] as substrate incubated for 2 hrs by FRET plus assay.
For data set [10], the species on record is Sus scrofa. Kind of data set: Stability of the compound assessed as porcine pancreatic elastase-mediated parent compound depletion by measuring parent compound remaining after 1 hr by LC-MS/MS analysis.
Data set [11] can be described thus: AUC(0 to infinity) in Wistar Han rat at 1 mg/kg, iv measured upto 24 hrs by LC-MS/MS analysis. Further details: route intravenous, dose 1 mg/kg, time <=24. The conditions noted are these: in vivo. The format is ADME, organism-based.
A short description of data set [12]: Clearance in Wistar Han rat at 1 mg/kg, iv measured upto 24 hrs by LC-MS/MS analysis. The format is ADME, organism-based. The conditions noted are these: in vivo.
A short description of data set [13]: Volume of distribution at steady state in Wistar Han rat at 1 mg/kg, iv measured upto 24 hrs by LC-MS/MS analysis. The format is ADME, organism-based. The conditions noted are these: in vivo, read-out: Vdss.
The nature of data set [14]: Half life in Wistar Han rat at 1 mg/kg, iv measured upto 24 hrs by LC-MS/MS analysis. As to conditions: in vivo. The format is ADME, organism-based.
Data set [15] is described as follows: Protein binding in Wistar Han rat at 1 mg/kg, iv measured upto 24 hrs by LC-MS/MS analysis. As to conditions: in vivo, read-out: PB (converted). The format is ADME, organism-based.
Data set [16] is described as follows: Unbound clearance in Wistar Han rat at 1 mg/kg, iv measured upto 24 hrs by LC-MS/MS analysis. The format is ADME, organism-based. The conditions noted are these: in vivo.
The species named for the next data set is Bos taurus. Nature of the data set: Stability of the compound assessed as bovine pancreas alpha chymotrypsin-mediated parent compound depletion by measuring parent compound remaining after 1 hr by LC-MS/MS analysis.
The species named for data set [17] is Sus scrofa. Nature of the data set: Stability of the compound assessed as porcine pepsin-mediated parent compound depletion by measuring parent compound remaining after 1 hr by LC-MS/MS analysis.
Data set [18] is described as follows: Stability of the compound assessed as bovine pancreatic trypsin-mediated parent compound depletion by measuring parent compound remaining after 1 hr by LC-MS/MS analysis. In kind it is ADME, Bos taurus. As to conditions: cattle, read-out: Stability.

Active and inactive are the calls of the source. The calls are words filed in the database; no cut-off is given here.

The values that follow come from ChEMBL document CHEMBL5034034 (J Med Chem, 2021).

The Ki is a measure of affinity in units of concentration, obtained from inhibition or displacement. A word on the AUC(0-inf): it is total exposure, with the tail of the curve extrapolated. Read a high AUC(0-inf) as high exposure. In general, EC50 refers to the concentration at which the effect is half-maximal. The Cmax is the highest concentration seen after dosing. By Tmax is commonly meant the time from dosing to the highest level. In general, bioavailability refers to the share of a dose that reaches the circulation, judged against a reference dose that is usually intravenous. A lower bioavailability goes with little systemic uptake. What is called clearance is the volume of plasma or blood freed of the substance per unit of time. A high value points to efficient removal. Broadly, the half-life is the time in which the quantity being followed falls by half.

T1 sequence (Q8NBP7 31-152 limits assumed): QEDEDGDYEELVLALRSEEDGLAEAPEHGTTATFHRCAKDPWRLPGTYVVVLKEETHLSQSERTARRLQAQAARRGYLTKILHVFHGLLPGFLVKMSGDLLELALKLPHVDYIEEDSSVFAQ
T1 sequence (Q8NBP7 153-692 limits assumed): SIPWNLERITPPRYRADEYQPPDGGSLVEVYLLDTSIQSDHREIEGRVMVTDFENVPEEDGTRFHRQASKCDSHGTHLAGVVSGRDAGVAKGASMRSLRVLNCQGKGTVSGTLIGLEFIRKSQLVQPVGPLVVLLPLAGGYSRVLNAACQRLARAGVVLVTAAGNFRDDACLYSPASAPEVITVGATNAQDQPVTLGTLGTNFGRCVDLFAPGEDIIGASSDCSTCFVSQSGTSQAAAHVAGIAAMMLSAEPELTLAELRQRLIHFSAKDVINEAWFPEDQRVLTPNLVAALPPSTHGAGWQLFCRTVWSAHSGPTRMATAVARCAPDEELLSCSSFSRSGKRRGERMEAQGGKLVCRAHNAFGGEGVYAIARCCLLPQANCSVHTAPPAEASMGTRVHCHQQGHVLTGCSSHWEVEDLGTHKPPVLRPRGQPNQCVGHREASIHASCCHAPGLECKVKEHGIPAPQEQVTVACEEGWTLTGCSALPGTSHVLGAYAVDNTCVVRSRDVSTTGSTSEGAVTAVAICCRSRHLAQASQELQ

In data set [1], `COc1ccc(C[C@@H]2NC(=O)[C@H]([C@@H](C)O)NC(=O)[C@@H]3[C@@H]4CCN3C(=O)[C@H](Cc3c[nH]c5ccc(F)cc35)NC(=O)[C@H](Cc3cccc(c3)C/C=C\CO4)NC(=O)[C@@H](C)NC(=O)[C@H](C)NC(=O)CCSCc3cccc(c3)CSCCNC(=O)[C@]3(C)CCCN3C2=O)cc1` came in with a Ki of 4.66 nM.

On to `COc1ccc(C[C@@H]2NC(=O)[C@H]([C@@H](C)O)NC(=O)[C@@H]3[C@@H]4CCN3C(=O)[C@@H]3Cc5cn(c6ccc(F)cc56)Cc5cn(nn5)-c5cc(cc(c5)CSCCC(=O)N[C@@H](CNC(=O)CCOCCOCCN)C(=O)N[C@H](C)C(=O)N[C@@H](Cc5cccc(c5)C/C=C/CO4)C(=O)N3)CSCCNC(=O)[C@]3(C)CCCN3C2=O)cc1`, for which, in data set [2], the “%AUCextra” value is reported as 19.6%. For the same compound, the AUC(0-inf) in [3] is 0.0683 µM·h. For the same compound, the Ki is under 0.129 nM in data set [1] and 0.00813 nM in [4]. The EC50 in data set [5] was found to be 6000 nM. The compound further showed a Cmax in data set [6] of 53.3 nM. Also, in data set [7], the Tmax turned out to be 0 h. Further, the bioavailability in data set [8] is 1%. In the data set with Mast cell, the outcome was inactive.

As to `COc1ccc(C[C@@H]2NC(=O)[C@H]([C@@H](C)OC)NC(=O)[C@@H]3[C@@H]4CCN3C(=O)[C@H](Cc3c[nH]c5ccc(F)cc35)NC(=O)[C@H](Cc3cccc(c3)C/C=C\CO4)NC(=O)[C@@H](CN)NC(=O)[C@H](C)NC(=O)CCSCc3cccc(c3)CSCCNC(=O)[C@]3(C)CCCN3C2=O)cc1`, the Ki in [1] was 1.16 nM; in data set [9] it was 2.25 nM.

Regarding `COc1ccc(C[C@@H]2NC(=O)[C@H]([C@@H](C)O)NC(=O)[C@@H]3[C@@H]4CCN3C(=O)[C@H](Cc3c[nH]c5ccc(F)cc35)NC(=O)[C@H](Cc3cccc(c3)C/C=C/CO4)NC(=O)[C@@H](C)NC(=O)[C@H](C)NC(=O)CCSCc3cccc(c3)CSCCNC(=O)[C@]3(C)CCCN3C2=O)cc1`, the Ki is 0.43 nM in [1] and 0.25 nM in [9].

Regarding `COc1ccc(C[C@@H]2NC(=O)[C@H]([C@@H](C)OC)NC(=O)[C@@H]3[C@@H]4CCN3C(=O)[C@H](Cc3c[nH]c5ccc(F)cc35)NC(=O)[C@H](Cc3cccc(c3)C/C=C\CO4)NC(=O)[C@@H](C)NC(=O)[C@H](C)NC(=O)CCSCc3cccc(c3)CSCCNC(=O)[C@]3(C)CCCN3C2=O)cc1`, in data set [1], the Ki turned out to be 4.83 nM.

Turning to `COc1ccc(C[C@@H]2NC(=O)[C@H]([C@@H](C)OC)NC(=O)[C@@H]3[C@@H]4CCN3C(=O)[C@H](Cc3c[nH]c5ccc(F)cc35)NC(=O)[C@H](Cc3cccc(c3)C/C=C/CO4)NC(=O)[C@@H](CN)NC(=O)[C@H](C)NC(=O)CCSCc3cccc(c3)CSCCNC(=O)[C@]3(C)CCCN3C2=O)cc1`, the Ki came to 0.2 nM in data set [1] and 0.16 nM in data set [9].

On to `COc1ccc(C[C@@H]2NC(=O)[C@H]([C@H](C)OC)NC(=O)[C@@H]3[C@@H]4CCN3C(=O)[C@H](Cc3c[nH]c5ccc(F)cc35)NC(=O)[C@H](Cc3cccc(c3)C/C=C\CO4)NC(=O)[C@H](C)NC(=O)[C@H](CN)NC(=O)CCSCc3cccc(c3)CSCCNC(=O)[C@]3(C)CCCN3C2=O)cc1`, for which the Ki in data set [1] was determined as 4.36 nM.

Regarding `COc1ccc(C[C@@H]2NC(=O)[C@H]([C@@H](C)OC)NC(=O)[C@@H]3[C@@H]4CCN3C(=O)[C@H](Cc3c[nH]c5ccc(F)cc35)NC(=O)[C@H](Cc3cccc(c3)CCCCO4)NC(=O)[C@@H](C)NC(=O)[C@H](C)NC(=O)CCSCc3cccc(c3)CSCCNC(=O)[C@]3(C)CCCN3C2=O)cc1`, the affinity in data set [1] corresponds to a Ki of 2.17 nM.

Take `COc1ccc(C[C@@H]2NC(=O)[C@H]([C@@H](C)O)NC(=O)[C@@H]3[C@@H]4CCN3C(=O)[C@@H]3Cc5cn(c6ccc(F)cc56)Cc5cn(nn5)-c5cc(cc(c5)CSCCC(=O)N[C@@H](CN)C(=O)N[C@H](C)C(=O)N[C@@H](Cc5cccc(c5)C/C=C/CO4)C(=O)N3)CSCCNC(=O)[C@]3(C)CCCN3C2=O)cc1`: the Stability in the data set listed under Sus scrofa [10] stood at 96.5%; in the data set filed under Bos taurus it was 90%; in the data set listed under Sus scrofa [17], 100%. Further, the “%AUCextra” value in data set [2] was 23.6%. Besides, the AUC(0-inf) came to 0.0215 µM·h in data set [3] and 0.964 µM·h in data set [11]. Further, the Ki is under 0.129 nM in data set [1], 0.00826 nM in [9] and 0.0094 nM in data set [4]. The clearance in data set [12] was found to be 12.3 mL/min/kg. For the same compound, the Vd in data set [13] stood at 3 L/kg. In addition, the half-life in data set [14] was 5.9 h. Further, the fraction unbound at 24 h in [15] was 0.144. Besides, the CL free in data set [16] was 85 mL/min/kg. In [5], the EC50 amounted to 600 nM. For the same compound, the remaining at 1 h in [18] stood at 100%. The compound also showed a Cmax in [6] of 12.4 nM. Besides, in data set [7], the Tmax amounted to 0.25 h. Moreover, in data set [8], the bioavailability was found to be 0.45%. Also, the result with Mast cell was inactive.

As for `COc1ccc(C[C@@H]2NC(=O)[C@H]([C@@H](C)O)NC(=O)[C@@H]3[C@@H]4CCN3C(=O)[C@@H]3Cc5cn(c6ccc(F)cc56)Cc5cn(nn5)-c5cc(cc(c5)CSCCC(=O)N[C@@H](CN)C(=O)N[C@H](C)C(=O)N[C@@H](Cc5cccc(c5)C/C=C\CO4)C(=O)N3)CSCCNC(=O)[C@]3(C)CCCN3C2=O)cc1`, the Ki in [9] stood at 0.037 nM. Besides, in the data set on Mast cell, the result was inactive.

Take `COc1ccc(C[C@@H]2NC(=O)[C@H]([C@H](C)OC)NC(=O)[C@@H]3[C@@H]4CCN3C(=O)[C@H](Cc3c[nH]c5ccc(F)cc35)NC(=O)[C@H](Cc3cccc(c3)C/C=C/CO4)NC(=O)[C@H](C)NC(=O)[C@H](CN)NC(=O)CCSCc3cccc(c3)CSCCNC(=O)[C@]3(C)CCCN3C2=O)cc1`: the results for the Ki in data set [1] and in [9] were 0.45 nM and 0.23 nM, respectively. Moreover, the outcome in the data set on Mast cell was inactive.

`COc1ccc(C[C@@H]2NC(=O)[C@H]([C@H](C)O)NC(=O)[C@@H]3[C@@H]4CCN3C(=O)[C@@H]3Cc5cn(c6ccc(F)cc56)Cc5cn(nn5)-c5cc(cc(c5)CSCCC(=O)N[C@@H](C)C(=O)N[C@@H](CNC(=O)CCOCCOCCNC(=O)CCCC[C@@H]5SC[C@H]6NC(=O)N[C@@H]56)C(=O)N[C@@H](Cc5cccc(c5)C/C=C/CO4)C(=O)N3)CSCCNC(=O)[C@]3(C)CCCN3C2=O)cc1`: the Ki is under 0.129 nM in data set [1], under 0.01 nM in [9] and 0.0006 nM in data set [4].
